In ChEMBL document CHEMBL1132012, “Synthesis and sulfatase inhibitory activities of (E)- and (Z)-4-hydroxytamoxifen sulfamates” (Bioorg Med Chem Lett, 1999):
Each block holds one molecule with its values, some of them ahead of it.

Columns and labels:
Steryl-sulfatase = biological target: T1, Steryl-sulfatase (Rattus norvegicus, UniProt P15589); assay: (§1) In vitro binding affinity against estrone sulfatase in rat liver microsomes; design: species or system Microsome
T1 sequence (P15589 whole entry): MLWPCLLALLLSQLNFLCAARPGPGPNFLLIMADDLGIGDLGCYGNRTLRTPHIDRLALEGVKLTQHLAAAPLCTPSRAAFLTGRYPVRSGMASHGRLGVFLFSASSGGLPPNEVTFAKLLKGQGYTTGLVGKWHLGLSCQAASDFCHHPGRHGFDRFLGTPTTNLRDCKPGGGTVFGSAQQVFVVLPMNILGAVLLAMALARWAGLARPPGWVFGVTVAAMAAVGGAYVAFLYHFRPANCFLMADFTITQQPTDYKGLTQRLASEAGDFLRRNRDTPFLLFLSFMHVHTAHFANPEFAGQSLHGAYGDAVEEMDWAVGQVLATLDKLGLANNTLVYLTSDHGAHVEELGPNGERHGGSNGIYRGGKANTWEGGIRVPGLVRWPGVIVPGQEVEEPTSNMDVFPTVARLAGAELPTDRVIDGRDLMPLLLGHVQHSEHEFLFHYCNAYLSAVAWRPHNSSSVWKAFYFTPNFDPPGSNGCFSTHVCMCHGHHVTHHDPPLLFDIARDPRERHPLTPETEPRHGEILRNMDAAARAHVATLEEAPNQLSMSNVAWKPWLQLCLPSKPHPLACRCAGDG

[1] = substrate: C[C@]12CC[C@@H]3c4ccc(OS(=O)(=O)O)cc4CC[C@H]3[C@@H]1CCC2=O; assay: as §1; conditions: Microsome

Ki (Steryl-sulfatase): > 500 µM
Molecule: CC/C(=C(\c1ccc(OCCN(C)C)cc1)c1ccc(OS(N)(=O)=O)cc1)c1ccccc1

Ki (Steryl-sulfatase): 35.9 µM
Molecule: CC/C(=C(/c1ccc(OCCN(C)C)cc1)c1ccc(OS(N)(=O)=O)cc1)c1ccccc1

B1: Steryl-sulfatase (Rattus norvegicus), P15589 (protein)
chain: T1 sequence (P15589 whole entry)
Km [1]: 90.2 µM
